Source: patent US9126945B2, “N-(3-carbamoylphenly)-1H-pyrazole-5-carboxamide derivatives and the use thereof for controlling animal pests” (BAYER INTELLECTUAL PROPERTY GMBH, priority 2011, dated 2015)

assay: log P by HPLC, EEC Directive 79/831 Annex V.A8, method a); type: physicochemical; settings: cell prints no method mark; Ex. 40 value equals the log P given under method a)
Method: (§1) ^a) Note regarding the determination of the log P values and mass detection The determination of the given log P values was carried out in accordance with EEC Directive 79/831 Annex V.A8 by HPLC (High Performance Liquid Chromatography) on a reversed-phase column (C18). Agilent 1100 LC system; 50*4.6 Zorbax Eclipse Plus C18 1.8 micron; mobile phase A: acetonitrile (0.1% formic acid); mobile phase B: water (0.09% formic acid); linear gradient from 10% acetonitrile to 95% acetonitrile in 4.25 min, then 95% acetonitrile for a further 1.25 min; oven temperature 55° C.; flow rate: 2.0 ml/min Mass detection is via an Agilend MSD system.
as §1, with “mass detection:” for “mass detection”, “2.0 ml/min.” for “2.0 ml/min”

| SMILES | logP |
| --- | --- |
| COC(=O)N(C(=O)c1c(C(F)(F)F)c(C(F)(F)C(F)(F)F)nn1C)c1ccc(Cl)c(C(=O)N(C(=O)OC)C2(C#N)CC2)c1 [Example 21] | 4.32 |
| CCCn1nc(C(F)(F)C(F)(F)F)c(C(F)(F)F)c1C(=O)N(C)c1ccc(F)c(C(=O)N(C)C2(C#N)CC2)c1 [Example 47] | 4.05 |
| Cn1nc(C(F)(F)C(F)(F)F)c(C(F)(F)F)c1C(=O)N(CC#N)c1ccc(Cl)c(C(=O)NC2(C#N)CC2)c1 [Example 44] | 3.25 |
| Cn1nc(C(F)(F)C(F)(F)F)c(C(F)(F)F)c1C(=O)N(Cc1ccncc1)c1ccc(Cl)c(C(=O)NC2(C#N)CC2)c1 [Example 56] | 2.52 |
| CC#CCN(C(=O)c1c(C(F)(F)F)c(C(F)(F)C(F)(F)F)nn1C)c1ccc(Cl)c(C(=O)NC2(C#N)CC2)c1 [Example 30] | 3.60 |
| CCn1nc(C(F)(F)C(F)(F)F)c(C(F)(F)F)c1C(=O)Nc1ccc(Cl)c(C(=O)NC2(C#N)CC2)c1 [Example 34] | 3.53 |
| Cn1nc(C(F)(F)C(F)(F)F)c(C(F)(F)F)c1C(=O)N(C(=O)C(C)(C)C)c1ccc(Cl)c(C(=O)NC2(C#N)CC2)c1 [Example 23] | 4.40 |
| Cn1nc(C(F)(F)C(F)(F)F)c(C(F)(F)F)c1C(=O)N(Cc1cccnc1)c1ccc(Cl)c(C(=O)NC2(C#N)CC2)c1 [Example 54] | 2.85 |
| COC(=O)N(C(=O)c1c(C(F)(F)F)c(C(F)(F)C(F)(F)F)nn1C)c1ccc(Cl)c(C(=O)NC2(C#N)CC2)c1 [Example 19] | 3.69 |
| Cn1nc(C(F)(F)F)c(C(F)(F)F)c1C(=O)Nc1cc(Br)c(Br)c(C(=O)NC2(C#N)CC2)c1 [Example 11] | 3.30 |
| CSc1c(C(F)(F)C(F)(F)F)nn(C)c1C(=O)Nc1ccc(Cl)c(C(=O)NC2(C#N)CC2)c1 [Example 42] | 3.43 |
| C=CCn1nc(C(F)(F)C(F)(F)F)c(C(F)(F)F)c1C(=O)Nc1ccc(Cl)c(C(=O)NC2(C#N)CC2)c1 [Example 58] | 3.65 |
| Cn1nc(C(F)(F)C(F)(F)F)c(C(F)(F)F)c1C(=O)N(Cc1ccccc1)c1ccc(Cl)c(C(=O)NC2(C#N)CC2)c1 [Example 31] | 3.97 |
| CN(C(=O)c1cc(NC(=O)c2c(C(F)(F)F)c(C(F)(F)C(F)(F)F)nn2C)ccc1Cl)C1(C#N)CC1 [Example 62] | 3.66 |
| C=C(C)CN(C(=O)c1c(C(F)(F)F)c(C(F)(F)C(F)(F)F)nn1C)c1ccc(Cl)c(C(=O)NC2(C#N)CC2)c1 [Example 55] | 3.78 |
| CCCn1nc(C(F)(F)C(F)(F)F)c(C(F)(F)F)c1C(=O)Nc1ccc(F)c(C(=O)NC2(C#N)CC2)c1 [Example 36] | 3.74 |
| Cn1nc(C(F)(F)C(F)(F)F)c([S+](C)[O-])c1C(=O)Nc1ccc(Cl)c(C(=O)NC2(C#N)CC2)c1 (stereo not shown) [Example 45] | 2.91 |
| CCCn1nc(C(F)(F)C(F)(F)F)c(C(F)(F)F)c1C(=O)Nc1ccc(Cl)c(C(=O)NC2(C#N)CC2)c1 [Example 35] | 3.87 |
| Cn1nc(C(F)(F)C(F)(F)F)c(C(F)(F)F)c1C(=O)N(Cc1ccccn1)c1ccc(Cl)c(C(=O)NC2(C#N)CC2)c1 [Example 32] | 3.53 |

| SMILES | logP |
| --- | --- |
| CCn1nc(C(F)(F)C(F)(F)F)c(C(F)(F)F)c1C(=O)N(C)c1ccc(F)c(C(=O)N(C)C2(C#N)CC2)c1 [Example 48] | 3.76 |
| CCn1nc(C(F)(F)C(F)(F)F)c(C(F)(F)F)c1C(=O)N(C)c1ccc(Cl)c(C(=O)NC2(C#N)CC2)c1 [Example 38] | 3.57 |
| CCCn1nc(C(F)(F)C(F)(F)F)c(C(F)(F)F)c1C(=O)N(CC)c1ccc(Cl)c(C(=O)N(CC)C2(C#N)CC2)c1 [Example 51] | 4.68 |
| CC(C)OC(=O)N(C(=O)c1c(C(F)(F)F)c(C(F)(F)C(F)(F)F)nn1C)c1ccc(Cl)c(C(=O)NC2(C#N)CC2)c1 [Example 63] | 4.19 |
| CCN(C(=O)c1c(C(F)(F)F)c(C(F)(F)C(F)(F)F)nn1CC)c1ccc(Cl)c(C(=O)NC2(C#N)CC2)c1 [Example 43] | 3.68 |
| C#CCn1nc(C(F)(F)C(F)(F)F)c(C(F)(F)F)c1C(=O)Nc1ccc(Cl)c(C(=O)NC2(C#N)CC2)c1 [Example 57] | 3.58 |
| Cn1nc(C(F)(F)C(F)(F)F)c(C(F)(F)F)c1C(=O)Nc1cc(Cl)c(Br)c(C(=O)NC2(C#N)CC2)c1 [Example 16] | 3.73 |
| CCC(=O)N(C(=O)c1c(C(F)(F)F)c(C(F)(F)C(F)(F)F)nn1C)c1ccc(Cl)c(C(=O)N(C(=O)CC)C2(C#N)CC2)c1 [Example 60] | 4.68 |
| CCn1nc(C(F)(F)C(F)(F)F)c(C(F)(F)F)c1C(=O)Nc1ccc(F)c(C(=O)NC2(C#N)CC2)c1 [Example 37] | 3.44 |
| Cn1nc(C(F)(F)C(F)(F)F)c(C(F)(F)F)c1C(=O)Nc1cc(Br)c(Cl)c(C(=O)NC2(C#N)CC2)c1 [Example 13] | 3.67 |
| Cn1nc(C(F)(F)C(F)(F)F)c(C(F)(F)F)c1C(=O)N(Cc1ccc(Cl)cc1)c1ccc(Cl)c(C(=O)NC2(C#N)CC2)c1 [Example 28] | 4.30 |
| CCC(=O)N(C(=O)c1c(C(F)(F)F)c(C(F)(F)C(F)(F)F)nn1C)c1ccc(Cl)c(C(=O)NC2(C#N)CC2)c1 [Example 33] | 3.91 |
| CCN(C(=O)c1c(C(F)(F)F)c(C(F)(F)C(F)(F)F)nn1CC)c1ccc(Cl)c(C(=O)N(CC)C2(C#N)CC2)c1 [Example 52] | 4.26 |
| CCOC(=O)N(C(=O)c1c(C(F)(F)F)c(C(F)(F)C(F)(F)F)nn1C)c1ccc(Cl)c(C(=O)NC2(C#N)CC2)c1 [Example 20] | 3.95 |
| Cn1nc(C(F)(F)C(F)(F)F)c(C(F)(F)F)c1C(=O)Nc1cc(F)c(Br)c(C(=O)NC2(C#N)CC2)c1 [Example 59] | 3.58 |
| CC(C)C(=O)N(C(=O)c1c(C(F)(F)F)c(C(F)(F)C(F)(F)F)nn1C)c1ccc(Cl)c(C(=O)NC2(C#N)CC2)c1 [Example 29] | 4.38 |
| Cc1cc(NC(=O)c2c(C(F)(F)F)c(C(F)(F)C(F)(F)F)nn2C)cc(C(=O)NC2(C#N)CC2)c1Cl [Example 24] | 3.51 |
| CCN(C(=O)c1cc(NC(=O)c2c(C(F)(F)F)c(C(F)(F)C(F)(F)F)nn2C)ccc1Cl)C1(C#N)CC1 [Example 61] | 3.86 |
| Cn1nc(C2(F)CC2)c(Cl)c1C(=O)Nc1ccc(Cl)c(C(=O)NC2(C#N)CC2)c1 [Example 17] | 2.50 |

same assay, conditions: reversed-phase C18 HPLC column; HPLC-MS method a), reversed-phase C18, acetonitrile/water with formic acid

| SMILES | chromatographic logP |
| --- | --- |
| COC(=O)c1c([N+](=O)[O-])c(C(F)(F)C(F)(F)F)nn1C [methyl 1-methyl-4-nitro-3-(pentafluoroethyl)-1H-pyrazole-5-carboxylate] | 3.18 |
| Cn1nc(C(F)(F)C(F)(F)F)c(C(F)(F)F)c1C(=O)Nc1ccc(Cl)c(C(=O)O)c1 [2-Chloro-5-({[1-methyl-3-(pentafluoroethyl)-4-(trifluoromethyl)-1H-pyrazol-5-yl]carbonyl}amino)benzenecarboxylic acid] | 3.18 |
| CCCn1nc(C(F)(F)C(F)(F)F)c(C(F)(F)F)c1C(=O)N(CC)c1ccc(Cl)c(C(=O)NC2(C#N)CC2)c1 [Example 50, N-{4-Chloro-3-[(1-cyanocyclopropyl)carbamoyl]phenyl}-N-ethyl-3-(pentafluoroethyl)-1-propyl-4-(trifluoromethyl)-1H-pyrazole-5-carboxamide] | 4.06 |
| CCOC(=O)c1c(Cl)c(C2(Cl)CC2)nn1C [Ethyl 4-chloro-3-(1-chlorocyclopropyl)-1-methyl-1H-pyrazole-5-carboxylate] | 3.52 |
| COC(=O)c1c(SC)c(C(F)(F)C(F)(F)F)nn1C [methyl 1-methyl-4-(methylsulphanyl)-3-(pentafluoroethyl)-1H-pyrazole-5-carboxylate] | 3.51 |
| Cn1nc(C2(Cl)CC2)c(Cl)c1C(=O)O [4-Chloro-3-(1-chlorocyclopropyl)-1-methyl-1H-pyrazole-5-carboxylic acid] | 1.9 |
| CC(=O)N(C(=O)c1cc(NC(=O)c2c(C(F)(F)F)c(C(F)(F)C(F)(F)F)nn2C)ccc1Cl)C1(C#N)CC1 [Example 40, N-{3-[Acetyl(1-cyanocyclopropyl)carbamoyl]-4-chlorophenyl}-1-methyl-3-(pentafluoroethyl)-4-(trifluoromethyl)-1H-pyrazole-5-carboxamide] | 3.81 |
| N#CC1(NC(=O)c2cc([N+](=O)[O-])ccc2Cl)CC1 [2-chloro-N-(1-cyanocyclopropyl)-5-nitrobenzamide] | 1.52 |
| COC(=O)c1c(N)c(C(F)(F)C(F)(F)F)nn1C [methyl 4-amino-1-methyl-3-(pentafluoroethyl)-1H-pyrazole-5-carboxylate] | 2.52 |
| Cn1nc(C2(F)CC2)c(Cl)c1C(=O)O [4-Chloro-3-(1-fluorocyclopropyl)-1-methyl-1H-pyrazole-5-carboxylic acid] | 3.07 |
| CCOC(=O)c1c(Cl)c(C2(F)CC2)nn1C [Ethyl 4-chloro-3-(1-fluorocyclopropyl)-1-methyl-1H-pyrazole-5-carboxylate] | 3.07 |

same assay, conditions: reversed-phase HPLC column (C18); HPLC-MS, method note not marked

| SMILES | chromatographic logP |
| --- | --- |
| CSc1c(C(F)(F)C(F)(F)F)nn(C)c1C(=O)O [1-Methyl-4-(methylsulphanyl)-3-(pentafluoroethyl)-1H-pyrazole-5-carboxylic acid] | 3.51 |

same assay, conditions: reversed-phase HPLC column (C18); cell prints no method mark; Ex. 40 value equals the log P given under method a)

| SMILES | chromatographic logP |
| --- | --- |
| CCCn1nc(C(F)(F)C(F)(F)F)c(C(F)(F)F)c1C(=O)N(CC)c1ccc(Cl)c(C(=O)NC2(C#N)CC2)c1 [Example 50, N-{4-Chloro-3-[(1-cyanocyclopropyl)carbamoyl]phenyl}-N-ethyl-3-(pentafluoroethyl)-1-propyl-4-(trifluoromethyl)-1H-pyrazole-5-carboxamide] | 4.06 |
| CC(=O)N(C(=O)c1cc(NC(=O)c2c(C(F)(F)F)c(C(F)(F)C(F)(F)F)nn2C)ccc1Cl)C1(C#N)CC1 [Example 40, N-{3-[Acetyl(1-cyanocyclopropyl)carbamoyl]-4-chlorophenyl}-1-methyl-3-(pentafluoroethyl)-4-(trifluoromethyl)-1H-pyrazole-5-carboxamide] | 3.81 |
